{
  "source": "patent US20230147021A1",
  "about": "“POLYSULFIDE STABILIZATION” (University Public Corporation Osaka, priority 2020, published 2023)",
  "key": {"[1]": {"test": "stabilization test for active sulfur molecules (residual GS-SS-SG by LC-MS/MS)", "assay_type": "physicochemical", "settings": "1 mM alkylating agent, 10 μM GS-SS-SG, pH 7.0, 37° C., FIG. 6; for active sulfur molecules stabilization (inhibition of GS-SS-SG autolysis): up to 4 hours", "procedure": "Next, the stabilization effect of active sulfur molecules of each alkylating agent containing the new tyrosine derivative was evaluated. Oxidized glutathione tetrasulfide (GS-SS-SG) was used as a model compound for the active sulfur molecules.\nThe following were mixed: 50 μL of 200 mM phosphate buffer (pH 7.0) (final concentration: 100 mM), 5 μL of 20 mM alkylating agent (TME-IAM, HPE-IAM, MBB, IAM) or DMSO (final concentration: 1 mM), 10 μL of 100 μM GS-SS-SG (final concentration: 10 μM), and 35 μL of ultrapure water; and the mixture was incubated at 37° C. while shielding light. One, 2, 3, and 4 hours after the start of the reaction, 10 μL of the reaction solution and 90 μL of 0.1% formic acid were mixed, thereby terminating the reaction. By performing the LC-MS/MS by using unreacted 1 μM GS-SS-SG as standard, a residual amount of the GS-SS-SG in the reaction solution was analyzed."}, "[2]": {"test": "reactivity with cysteine hydropolysulfide, adducts by LC-ESI-MS/MS", "assay_type": "physicochemical", "settings": "1 mM agent, one hour at 37° C., CysS-(S)n—H from 100 μM cystine and 300 μM Na2S2; FIG. 10", "procedure": "The reactivity of TME-IAM with respect to cysteine hydropolysulfide [CysS-(S)n—H] was verified as compared to HPE-IAM as indicated below.\nCysSSH/CysS-(S)n—H which was prepared by incubating 100 μM cystine and 300 μM Na2S2 for 5 minutes at 37° C. was made to react with TME-IAM or HPE-IAM (1 mM each) for one hour at 37° C.\nNext, its reaction mixture was provided to the LC-ESI-MS/MS analysis and respective adducts for CysSH/CysS-(S)n—H and HS^− (bis-S-adduct) were detected.\nIncidentally, the concentration of each compound as sulfur is calculated according to the following formula: a concentration as sulfur=a concentration as the compound×the number of sulfur atoms in the compound (for example, in a case of CysSSH, the concentration as sulfur=2×[CysSSH]). Referring to FIG. 10, the concentrations of each adduct as the compound and sulfur are indicated as a bar with slanted stripes and a bar without stripes, respectively."}, "[3]": {"settings": "37° C., neutral pH (pH 7.0); stated as known; cited from earlier work"}, "[4]": {"test": "reactivity with hydrogen sulfide (Na2S), adducts by LC-ESI-MS/MS", "assay_type": "physicochemical", "settings": "0.1 mM or 1 mM agent, 0.1 mM Na2S, one hour at 37° C.; FIG. 12", "procedure": "The incubation of 0.1 mM or 1 mM TME-IAM (right side in FIG. 12) or MBB (left side in FIG. 12) was performed for one hour at 37° C. under the existence of 0.1 mM Na2S. As a result, the HS-adduct and the bis-S-adduct in the reaction mixture were respectively detected by the LC-ESI-MS/MS analysis.\nThe reaction mixture was separated by the Alliance e2695 system equipped with a YMC-Triart C18 column (inside diameter. 50×2.0 mm) and was then eluted with a linear gradient (30-99% for 5 minutes) by using methanol as a mobile phase under the existence of 0.1% FA (formic acid) at a flow speed of 0.3 mL/min at 40° C."}, "[5]": {"test": "reactivity of alkylating agents with cysteine (LC-MS/MS of residual cysteine and cysteine adducts)", "assay_type": "physicochemical", "settings": "1 mM alkylating agent, 0.1 mM cysteine, phosphate buffer pH 7.5, 37° C., 1, 3 and 8 hours; FIG. 5", "procedure": "Next, the reactivity between the tyrosine derivative according to the present invention and the active sulfur species was examined.\nThe following were mixed: 50 μL of 200 mM phosphate buffer (pH 7.5) (final concentration: 50 mM), 2 μL of 100 mM alkylating agent (TME-IAM, TEE-IAM, NAT-IAM, HPE-IAM) or DMSO (final concentration: 1 mM), 2 μL of 10 mM cysteine (final concentration: 0.1 mM), and 146 μL of ultrapure water, and the mixture was incubated at 37° C. while shielding light. One, 3, and 8 hours after the start of the reaction, 10 μL of the reaction solution and 90 μL of 0.1% formic acid were mixed, thereby terminating the reaction. By performing the LC-MS/MS by using unreacted 10 μM cysteine as standard, a residual amount of the cysteine in the reaction solution was analyzed and the generation of cysteine adducts by various kinds of alkylating agents was analyzed."}, "[6]": {"test": "stabilization of oxidized glutathione polysulfides with different numbers of sulfur atoms", "assay_type": "physicochemical", "settings": "1 mM TME-IAM, 10 μM GS-SSS-SG, pH 7.0, 37° C., 30 minutes after the processing; FIG. 9", "procedure": "It has been made clear that compounds with different quantities of sulfur atoms included in the molecules exist in the active sulfur molecules. In general, the compound including a larger number of sulfur atoms has higher reactivity and has unstable molecules. So, the active sulfur molecules stabilization effect of TME-IAM was analyzed by using the active sulfur molecules with different quantities of the contained sulfur atoms. For this analysis, oxidized glutathione pentasulfide (GS-SSS-SG) and oxidized glutathione trisulfide (GS-S-SG) were used in addition to GS-SS-SG.\nThe following were mixed: 50 μL of 200 mM phosphate buffer (pH 7.0) (final concentration: 100 mM) and 5 μL of […] TME-IAM solution (final concentration: 1 mM), 10 μL of 100 μM oxidized form glutathione polysulfide (GS-SSS-SG, GS-SS-SG, GS-S-SG) (final concentration: 10 μM), and 35 μL of ultrapure water; and the mixture was incubated at 37° C. while shielding light. […] By performing the LC-MS/MS analysis by using each unreacted 1 μM oxidized form glutathione polysulfide (GS-SSS-SG, GS-SS-SG, GS-S-SG) as standard, a residual amount of the oxidized form glutathione polysulfide GS-SSS-SG, GS-SS-SG, GS-S-SG) in the reaction solution was analyzed."}, "[7]": {"test": "pH influence test for the GS-SS-SG protection effect", "assay_type": "physicochemical", "settings": "one hour, FIG. 7", "procedure": "Next, the pH influence of the GS-SS-SG protection effect of TME-IAM was evaluated. It has been clarified that the active sulfur molecules GS-SS-SG are stable under acid conditions, while they are very unstable under alkali conditions.\nThe following were mixed: 50 μL of 200 mM phosphate buffer (pH 7.0, 7.5, 8.0) (final concentration: 100 mM) and 5 μL of 20 mM TME-IAM solution (final concentration: 1 mM), 10 μL of 100 μM GS-SS-SG (final concentration: 10 μM), and 35 μL of ultrapure water; and the mixture was incubated at 37° C. while shielding light. One hour after the start of the reaction, 10 μL of the reaction solution and 90 μL of 0.1% formic acid were mixed, thereby terminating the reaction. By performing the LC-MS/MS analysis by using unreacted 1 μM GS-SS-SG as standard, a residual amount of GS-SS-SG in the reaction solution was analyzed."}, "[8]": {"test_system": "HEK (human embryonic kidney) 293T cells", "test": "cell permeability and esterase sensitivity in HEK 293T cells", "assay_type": "cell-based", "settings": "1 mM TME-IAM, one hour at 37° C., FIG. 11A", "procedure": "(§1) The following test was conducted with regard to cell permeability and esterase sensitivity of TME-IAM. FIG. 11 illustrates representative mass chromatographs of (A) HEK (human embryonic kidney) 293T cells and (B) mice liver homogenate which were processed with TME-IAM.\n(§2) After processing the HEK 293T cells for one hour at 37° C. by using 1 mM TME-IAM, they were homogenized by ultrasonication in 80% methanol. The mice liver tissues were also homogenized by ultrasonication in 80% methanol containing 1 mM TME-IAM and were incubated for one hour at 37° C. After centrifugal separation of each of them, the obtained supernatant was collected and then diluted to 10 times by using 0.1% FA (formic acid).\n(§3) Next, the mixture was made to undergo the LC-ESI-MS/MS analysis and individual by-products driving from TME-IAM, its glutathione adduct (GS-AM-TME), and esterase dependency cleavage were detected. They are Tyr-IAM ((2-iodoacetyl)-I-tyrosine) and GS-AM-Tyr (GSH adduct of (2-iodoacetyl)-1-tyrosine), respectively."}, "[9]": {"test": "reaction mole ratio (processing concentration) influence test for the GS-SS-SG protection effect", "assay_type": "physicochemical", "settings": "400-fold higher concentration than GS-SS-SG (10 μM), pH 7.0, 37° C., one hour; FIG. 8", "procedure": "In order to detect the active sulfur molecules with high sensitivity, it is important to form a stable derivative. In order to do so, it is necessary to add a high-concentration alkylating agent to a specimen; and it is known that the addition of the high-concentration alkylating agent promotes the decomposition of the active sulfur molecules (NPL 1). So, processing concentration dependency of the active sulfur molecules stabilization activity of TME-IAM was analyzed by using the active sulfur molecules GS-SS-SG.\nThe following were mixed: 50 μL of 200 mM phosphate buffer (pH 7.0) (final concentration: 100 mM) and 5-20 μL of a TME-IAM solution (final concentration: 0.25, 0.5, 1, 2, 4 mM), 10 μL of 100 μM GS-SS-SG (final concentration: 10 μM), and 20-35 μL of ultrapure water; and the mixture was incubated at 37° C. while shielding light. One hour after the start of the reaction, 10 μL of the reaction solution and 90 μL of 0.1% formic acid were mixed, thereby terminating the reaction. By performing the LC-MS/MS analysis by using unreacted 1 μM GS-SS-SG as standard, a residual amount of GS-SS-SG in the reaction solution was analyzed."}, "[10]": {"test": "esterase-dependent by-product formation in mice liver homogenate in 80% methanol", "assay_type": "in vitro ADME", "settings": "mice liver tissues homogenized in 80% methanol containing 1 mM TME-IAM, one hour at 37° C.; FIG. 11B", "procedure": "as §1, §2, §3\nAccordingly, in order to evaluate the possibility of forming these derivatives when in vivo samples are used for the reactivity sulfur metabolome analysis, mice liver tissues were prepared in 80% methanol containing 1 mM TME-IAM, homogenized, and incubated for one hour at 37° C., and the obtained samples were analyzed by LC-ESI-MS/MS."}, "[11]": {"test": "GS-SS-SG protection effect of N-iodoacetyl tyrosine", "assay_type": "physicochemical", "settings": "compared with TME-IAM; FIG. 13", "text": "Incidentally, N-iodoacetyl tyrosine is expressed with the following chemical formula."}},
  "data": [
    {"smiles": "O=C(CI)NCCc1ccc(O)cc1", "note": "[HPE-IAM, f-(4-hydroxyphenyl) ethyl iodoacetamide, reference compound]", "values": [
      {"measurement": "active sulfur molecules stabilization (inhibition of GS-SS-SG autolysis)", "setting": "[1]", "result": "inhibited significantly"},
      {"measurement": "amount of HS− (bis-S adduct) decomposition product", "setting": "[2]", "result": "prominently higher than the amount of the product detected by using TME-IAM"}
    ]},
    {"smiles": "Cc1c(C)n2c(CBr)c(C)c(=O)n2c1=O", "note": "[MBB, monobromobimane, reference compound]", "values": [
      {"measurement": "effect on decomposition of GS-SS-SG", "setting": "[3]", "result": "decomposition is promoted"},
      {"measurement": "reactivity with hydrogen sulfide", "setting": "[4]", "result": "react with hydrogen sulfide and form the bis-S-adduct"}
    ]},
    {"smiles": "COC(=O)[C@H](Cc1ccc(O)cc1)NC(=O)CI", "note": "[TME-IAM, N-iodoacetyl tyrosine methyl ester]", "values": [
      {"measurement": "reactivity with the thiol group (cysteine)", "setting": "[5]", "result": "same level of reactivity with the thiol group (cysteine) as that of HPE-IAM"},
      {"measurement": "decomposition suppression of GS-SSS-SG", "setting": "[6]", "result": "predominant decomposition suppression"},
      {"measurement": "GS-SS-SG remained", "setting": "[7]; 1 mM TME-IAM, 10 μM GS-SS-SG, weakly alkaline solution (pH 8.0), 37° C.", "result": "approximately 70%"},
      {"measurement": "GS-SS-SG remaining compared with HPE-IAM", "setting": "[7]; pH 8.0, 37° C.", "result": "higher value than that of the system to which the publicly known iodoacetamide derivative HPE-IAM was added"},
      {"measurement": "GS-SS-SG remained", "setting": "[1]; incubation for 4 hours", "result": "approximately 80%"},
      {"measurement": "active sulfur molecules stabilization (inhibition of GS-SS-SG autolysis)", "setting": "[1]", "result": "high active sulfur molecules stabilization activity"},
      {"measurement": "reactivity with hydrogen sulfide", "setting": "[4]", "result": "react with hydrogen sulfide and form the bis-S-adduct"},
      {"measurement": "cell permeability", "setting": "[8]", "result": "can permeate through cell membranes"},
      {"measurement": "reduction of GS-SS-SG at high alkylating agent concentration", "setting": "[9]", "result": "any significant reduction of GSSSSG was not observed"},
      {"measurement": "esterase-dependent by-product Tyr-IAM in samples", "setting": "[10]", "result": "rarely detected"},
      {"measurement": "amounts of CysSSH and CysSSSH detected", "setting": "[2]", "result": "significantly larger than those detected by using HPE-IAM"}
    ]},
    {"smiles": "CCOC(=O)C(Cc1ccc(O)cc1)NC(=O)CI", "note": "(stereo not drawn) [TEE-IAM]", "values": [
      {"measurement": "reactivity with the thiol group (cysteine)", "setting": "[5]", "result": "lower reactivity with cysteine than that of TME-IAM and HPE-IAM"}
    ]},
    {"smiles": "O=C(CI)N[C@@H](Cc1ccc(O)cc1)C(=O)O", "note": "[N-iodoacetyl tyrosine]", "values": [
      {"measurement": "GS-SS-SG protection effect", "setting": "[11]", "result": "same level of the GS-SS-SG protection effect as that of TME-IAM"}
    ]},
    {"smiles": "CC(=O)NC(Cc1ccc(O)cc1)C(=O)NC(=O)CI", "note": "(stereo not drawn) [NAT-IAM]", "values": [
      {"measurement": "reactivity with the thiol group (cysteine)", "setting": "[5]", "result": "lower reactivity with cysteine than that of TME-IAM and HPE-IAM"}
    ]}
  ]
}
